Test results as given in patent publication US20240300902A1, “NOVEL TRANSGLUTAMINASE 2 INHIBITOR AND USE THEREOF” (MD BIOLAB CO., LTD., priority 2021, published 2024).

What was measured:
[1] = tested on: ACHN cancer cell population; test: Sulforhodamine B (SRB) assay; type: cell-based, Human
Procedure: Cells (10,000 cells/well, 100 μL) were incubated in a 96-well microtiter plate. After 24 hours of the incubation, drug (100 μL) was added to each of the wells, and the culture was further incubated at 37° C. for 48 hours. The cells were then fixed in TCA (50 μL per well). The plates were incubated at 4° C. for a minimum of 1 hour or a maximum of 3 hours. The liquid was removed from the plates, and then the plate was washed five times with water and then dried at room temperature (RT) for about 12-24 hours. The fixed cells were stained with 100 μL SRB for 5 minutes at room temperature. After the staining, the plate was washed three times with 1% (w/v) glacial acetic acid and dried at room temperature for about 12-24 hours. Next, the SRB was then dissolved in 10 mM Trizma base, and the absorbance was measured at 515 nm. The effect of the drug was expressed as GI50 (50% growth inhibition).
Specifically, each of the LDD3732, LDD3922, and LDD3959 in concentrations of 10^−9, 10^−8, 10^−7, 10^−6, and 10^−5 M were tested, and the percentage decrease in the control value of SRB was measured using an ACHN cancer cell population.

ACHN renal cancer cells = test: Antitumor effect in in vivo renal cancerous tumors, ACHN xenograft, oral administration; set-up: species or system mice; conditions: oral administration daily
Procedure: To examine the antitumor effect of LDD3959, CanN.Cg-Foxn1nu/CrljOri mice were used as experimental animals. The mice were xenografted with ACHN renal cancer cells or CAKI-1 renal cancer cells to induce tumors. The ACHN renal cancer cell-transplanted group was orally administered with LDD3959, and the CAKI-1-transplanted group was intraperitoneally administered with LDD3959. In this test, the oral administration was performed daily and the intraperitoneal administration was performed twice a week.

ACHN cells = test: Expression of cell proliferation inhibition-related and angiogenesis inhibition-related proteins, western blot; type: cell-based; conditions: various concentrations, 48 hours
Procedure: LDD3959 treatment at various concentrations was performed on ACHN cells, using a serum-free culture medium, and a reaction was performed at 37° C. in the presence of 5% CO2 for 2 hours. The culture medium was replaced with a culture medium containing 10% FBS, and a reaction was performed for 48 hours. The culture medium was removed, and PBS washing was performed. With the use of a solution obtained by adding a protease inhibitor cocktail and a phosphatase inhibitor cocktail to RIPA buffer (25 mM Tris*HCl pH 7.6, 150 mM NaCl, 1% NP-40, 1% sodium deoxycholate, and 0.1% SDS) was used to prepare whole cell lysates.
The proteins were quantified by Bicinchoninic acid (BCA) protein assay. The proteins were resolved by SDS-PAGE and transcribed into a polyvinylidene difluoride (PVDF) membrane. The membrane was then blocked with 5% BSA for 1 hour at room temperature, allowed to react with a labeled antibody overnight at 4° C., washed in PBS-T for 30 minutes at room temperature, and allowed to react with a horseradish peroxidase (HRP)-bound secondary antibody for 2 hours at room temperature. Finally, the membrane was washed in PBS-T for […] at room temperature and developed with enhanced chemiluminescence.

a total of 8 tumors = test: OncoPanel assay conducted by Eurofins; type: cell-based
Procedure: The OncoPanel™ assay conducted by Eurofins confirmed the antitumor efficacy of LDD3959 in a total of 8 tumors at concentrations of 10 μM or lower.

MDA-MB-231 cells = test: Protein expression level change in TNBC breast cancer cells according to treatment time, western blot; type: cell-based; conditions: MDA-MB-231, 24, 48 and 72 hours
MDA-MB231 cells = test: Cell viability in breast cancer cell lines according to concentration; type: cell-based
Procedure: First breast cancer cells (MDA-MB-453, HCC-1806, HCC-1937: 10,000 cells/well, 100 μl) and second breast cancer cells (MDA-MB-231, MCF-7: 10,000 cells/well, 100 μl) were cultured in 96-well microplates.
After 24 hours, LDD3959 […] of various concentrations were added to each well, using a serum-free cell culture medium, and a reaction was allowed to proceed for 2 hours at 37° C. in the presence of 5% CO2. The culture medium was replaced with a culture medium containing 10% FSB, and a reaction was performed for 72 hours.
The existing culture medium was removed, and a new culture medium containing a water soluble tetrazolium salt was added. After that, the plate underwent a reaction at 37° C. in the presence of 5% CO2 for a duration in the range of 1 hour to 3 hours, and then absorbance was measured at 450 nm.

430 kinds of kinases = test: Kinase panel assay conducted by Eurofins; type: biochemical
Procedure: A total of 430 kinds of kinases were treated with 1 μM of LDD3959 through a kinase panel assay conducted by Eurofins to examine each activity.
The ATP concentration used in this experiment was 10 μM.

O=C1C(Cl)=C(Cl)C(=O)c2[nH]c(-c3ccc(Br)c(F)c3)nc21 [LDD3959, 2-(4-bromo-3-fluorophenyl)-5,6-dichloro-1H-benzo[d]imidazole-4,7-dione]
GI50 ([1]; Homo sapiens, 48 hours, read-out: GI50 (50% growth inhibition)): 2500 nM
SRB measurement (percentage decrease in the control value of SRB) ([1]; concentration of 10^−5 M, 48 hours): −11.87
decrease in cell counts ([1]; concentrations 10^−6 M or lower): no significant decrease in cell counts
tumor growth inhibitory effect (ACHN renal cancer cells): concentration-dependent tumor growth inhibitory effects
Akt/mTOR signals (ACHN cells): inhibiting Akt/mTOR45 signals
NFκB complexes (ACHN cells): inhibiting NFκB complexes
concentration with antitumor efficacy (a total of 8 tumors): ≤ 10 µM
AKT/mTOR signals (MDA-MB-231 cells): AKT/mTOR signals were inhibited
NFκB complexes (MDA-MB-231 cells): NFκB complexes were inhibited
effective concentration for apoptosis (MDA-MB231 cells; MDA-MB231, highest expression level of transglutaminase 2, 72 hours): the effective concentration was lowest, and the efficacy was best
acting concentration compared with conventional transglutaminase 2 inhibitors (MDA-MB231 cells; breast cancer cell lines): lower concentrations than conventional transglutaminase 2 inhibitors
number of kinases that specifically showed inhibition (430 kinds of kinases; 430 kinases treated with 1 μM): 4
inhibitory activity against the 4 kinases (430 kinds of kinases; highest concentration 1 μM, ATP 10 μM): very good inhibitory activity
